Results published in ChEMBL document CHEMBL4052712, “Design and optimization of highly-selective, broad spectrum fungal CYP51 inhibitors” (Bioorg Med Chem Lett, 2017).

Columns and labels:
Cytochrome P450 3A4 = Cytochrome P450 3A4 (Homo sapiens, UniProt P08684); test: Inhibition of CYP3A4 in human hepatocyte microsomes using testosterone substrate by HPLC/MS/MS method; type: ADME
Cytochrome P450 2C9 = Cytochrome P450 2C9 (Homo sapiens, UniProt P11712); test: Inhibition of CYP2C9 in human hepatocyte microsomes using diclofenac substrate by HPLC/MS/MS method; type: ADME
[1] = molecular target: T1, Cytochrome P450 11B1, mitochondrial (Homo sapiens, UniProt P15538); test: Inhibition of CYP11B1 in human hepatocyte microsomes using deoxycortisol substrate by HPLC/MS/MS method; type: ADME
T1 sequence (P15538 whole entry): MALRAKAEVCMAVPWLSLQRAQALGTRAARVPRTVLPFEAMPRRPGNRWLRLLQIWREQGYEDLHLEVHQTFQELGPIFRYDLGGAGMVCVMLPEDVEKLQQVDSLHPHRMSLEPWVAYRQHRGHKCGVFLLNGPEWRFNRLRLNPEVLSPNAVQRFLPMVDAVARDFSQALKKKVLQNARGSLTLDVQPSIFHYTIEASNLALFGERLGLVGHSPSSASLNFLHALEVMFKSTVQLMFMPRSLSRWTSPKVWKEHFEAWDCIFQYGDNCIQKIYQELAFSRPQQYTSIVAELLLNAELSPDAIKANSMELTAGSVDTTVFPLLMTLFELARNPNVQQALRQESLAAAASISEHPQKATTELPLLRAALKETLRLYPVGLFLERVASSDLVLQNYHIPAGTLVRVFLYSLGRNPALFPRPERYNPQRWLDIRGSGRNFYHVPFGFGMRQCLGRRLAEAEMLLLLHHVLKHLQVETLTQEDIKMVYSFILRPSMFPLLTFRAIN

[2] = molecular target: T2, Cytochrome P450 11B2, mitochondrial (Homo sapiens, UniProt P19099); test: Inhibition of CYP11B2 in human hepatocyte microsomes using deoxycorticosteroid substrate by HPLC/MS/MS method; type: ADME
T2 sequence (P19099 whole entry): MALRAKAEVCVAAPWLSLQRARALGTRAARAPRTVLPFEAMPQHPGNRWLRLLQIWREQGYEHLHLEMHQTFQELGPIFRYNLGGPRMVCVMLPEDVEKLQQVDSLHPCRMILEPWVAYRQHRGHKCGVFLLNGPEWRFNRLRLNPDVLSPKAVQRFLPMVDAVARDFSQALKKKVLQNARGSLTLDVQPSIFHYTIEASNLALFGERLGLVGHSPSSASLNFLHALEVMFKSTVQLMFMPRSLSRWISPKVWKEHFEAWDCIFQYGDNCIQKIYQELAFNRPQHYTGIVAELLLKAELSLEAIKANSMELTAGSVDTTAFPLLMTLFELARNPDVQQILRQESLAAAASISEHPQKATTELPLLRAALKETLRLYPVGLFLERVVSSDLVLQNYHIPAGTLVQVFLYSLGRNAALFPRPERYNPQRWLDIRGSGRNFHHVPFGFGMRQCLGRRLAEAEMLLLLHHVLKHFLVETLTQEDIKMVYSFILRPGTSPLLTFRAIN

[3] = molecular target: T3, Steroid 17-alpha-hydroxylase/17,20 lyase (Homo sapiens, UniProt P05093); test: Inhibition of CYP17 lyase in human hepatocyte microsomes using 17a-hydroxypregnenolone substrate by HPLC/MS/MS method; type: ADME
T3 sequence (P05093 whole entry): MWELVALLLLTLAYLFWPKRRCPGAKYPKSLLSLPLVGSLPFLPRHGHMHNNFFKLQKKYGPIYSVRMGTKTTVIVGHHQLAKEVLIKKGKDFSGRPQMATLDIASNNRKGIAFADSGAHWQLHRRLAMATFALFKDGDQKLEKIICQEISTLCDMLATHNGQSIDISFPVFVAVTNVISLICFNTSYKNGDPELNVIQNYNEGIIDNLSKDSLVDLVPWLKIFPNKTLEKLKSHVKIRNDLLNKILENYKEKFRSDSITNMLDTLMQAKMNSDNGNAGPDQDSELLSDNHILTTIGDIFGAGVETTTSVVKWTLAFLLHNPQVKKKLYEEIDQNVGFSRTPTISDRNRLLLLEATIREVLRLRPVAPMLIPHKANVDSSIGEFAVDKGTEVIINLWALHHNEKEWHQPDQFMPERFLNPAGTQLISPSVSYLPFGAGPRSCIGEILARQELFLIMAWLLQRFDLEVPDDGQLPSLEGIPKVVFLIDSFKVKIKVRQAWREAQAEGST

Aromatase = molecular target: T4, Aromatase (Homo sapiens, UniProt P11511); test: Inhibition of CYP19 in human hepatocyte microsomes using testosterone substrate by HPLC/MS/MS method; type: ADME
T4 sequence (P11511 whole entry): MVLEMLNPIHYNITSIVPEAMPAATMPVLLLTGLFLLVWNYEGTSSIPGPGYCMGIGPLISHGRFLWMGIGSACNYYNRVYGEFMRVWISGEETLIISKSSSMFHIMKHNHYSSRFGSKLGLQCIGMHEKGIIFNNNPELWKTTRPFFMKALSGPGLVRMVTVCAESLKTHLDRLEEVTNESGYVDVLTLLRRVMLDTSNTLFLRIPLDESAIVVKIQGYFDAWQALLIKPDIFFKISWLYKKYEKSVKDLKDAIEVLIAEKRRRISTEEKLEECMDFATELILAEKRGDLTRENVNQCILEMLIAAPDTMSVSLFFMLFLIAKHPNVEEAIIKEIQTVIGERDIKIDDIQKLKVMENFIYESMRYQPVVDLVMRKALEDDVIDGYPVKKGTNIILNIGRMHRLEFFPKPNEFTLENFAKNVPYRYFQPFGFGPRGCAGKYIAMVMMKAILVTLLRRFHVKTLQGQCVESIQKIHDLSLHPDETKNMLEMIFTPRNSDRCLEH

[4] = Tmax in Swiss albino mouse at 5 mg/kg, po measured during 0.5 to 48 hrs post dose by HPLC/MS/MS method; type: ADME, organism-based; conditions: in vivo
[5] = Cmax in Swiss albino mouse at 5 mg/kg, po measured during 0.5 to 48 hrs post dose by HPLC/MS/MS method; type: ADME, organism-based; set-up: dose 5 mg/kg, route oral; conditions: in vivo
[6] = AUClast in Swiss albino mouse at 5 mg/kg, po measured during 0.5 to 48 hrs post dose by HPLC/MS/MS method; type: ADME, organism-based; set-up: dose 5 mg/kg, route oral, time 0 - last; conditions: in vivo
Kidney [7] = test: Drug level in Swiss albino mouse kidney at 5 mg/kg, po after 48 hrs assessed as relative Cmax level relative to plasma drug level by HPLC/MS/MS method; type: ADME, organism-based; conditions: other tissue
Kidney [8] = test: Drug level in Swiss albino mouse kidney at 5 mg/kg, po after 48 hrs assessed as relative AUC (48 hrs) level relative to plasma drug level by HPLC/MS/MS method; type: ADME, organism-based; conditions: other tissue
Brain = test: Drug level in Swiss albino mouse brain at 5 mg/kg, po after 48 hrs assessed as relative Cmax level relative to plasma drug level by HPLC/MS/MS method; type: ADME, organism-based
[9] = Half life in Swiss albino mouse lung at 5 mg/kg, po measured during 0.5 to 48 hrs post dose by HPLC/MS/MS method; type: ADME, organism-based
[10] = Half life in Swiss albino mouse brain at 5 mg/kg, po measured during 0.5 to 48 hrs post dose by HPLC/MS/MS method; type: ADME, organism-based
[11] = molecular target: Cytochrome P450 2C19, Homo sapiens (UniProt P33261); test: Inhibition of CYP2C19 in human hepatocyte microsomes using omeprazole substrate by HPLC/MS/MS method
Chain of Cytochrome P450 2C19, Homo sapiens (P33261 whole entry, looked up): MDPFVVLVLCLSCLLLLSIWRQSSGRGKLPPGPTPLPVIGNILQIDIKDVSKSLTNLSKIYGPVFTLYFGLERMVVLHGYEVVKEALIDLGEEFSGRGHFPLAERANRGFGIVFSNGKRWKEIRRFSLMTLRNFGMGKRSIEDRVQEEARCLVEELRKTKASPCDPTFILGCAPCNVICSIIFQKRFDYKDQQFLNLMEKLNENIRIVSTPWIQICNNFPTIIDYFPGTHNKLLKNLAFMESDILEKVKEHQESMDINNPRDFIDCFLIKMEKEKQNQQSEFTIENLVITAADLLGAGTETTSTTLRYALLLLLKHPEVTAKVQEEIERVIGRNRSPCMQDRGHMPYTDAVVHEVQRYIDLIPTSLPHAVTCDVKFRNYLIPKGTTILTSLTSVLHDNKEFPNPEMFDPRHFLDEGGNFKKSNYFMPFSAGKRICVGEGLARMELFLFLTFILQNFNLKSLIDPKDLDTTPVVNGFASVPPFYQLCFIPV

Chain of Cytochrome P450 3A4 (P08684 whole entry): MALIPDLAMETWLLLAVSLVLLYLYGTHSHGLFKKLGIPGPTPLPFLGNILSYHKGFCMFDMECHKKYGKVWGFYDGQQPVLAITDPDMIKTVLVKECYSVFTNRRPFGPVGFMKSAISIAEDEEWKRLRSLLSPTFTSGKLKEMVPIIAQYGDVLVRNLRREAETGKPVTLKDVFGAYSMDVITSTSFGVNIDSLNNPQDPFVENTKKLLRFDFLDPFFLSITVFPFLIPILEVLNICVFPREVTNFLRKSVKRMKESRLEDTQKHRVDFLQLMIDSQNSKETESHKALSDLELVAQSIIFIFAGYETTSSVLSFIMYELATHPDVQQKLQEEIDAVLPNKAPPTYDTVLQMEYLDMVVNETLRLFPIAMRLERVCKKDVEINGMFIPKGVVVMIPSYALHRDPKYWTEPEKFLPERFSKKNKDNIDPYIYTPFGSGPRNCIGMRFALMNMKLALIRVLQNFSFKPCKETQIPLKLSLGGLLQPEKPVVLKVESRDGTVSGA
Chain of Cytochrome P450 2C9 (P11712 whole entry): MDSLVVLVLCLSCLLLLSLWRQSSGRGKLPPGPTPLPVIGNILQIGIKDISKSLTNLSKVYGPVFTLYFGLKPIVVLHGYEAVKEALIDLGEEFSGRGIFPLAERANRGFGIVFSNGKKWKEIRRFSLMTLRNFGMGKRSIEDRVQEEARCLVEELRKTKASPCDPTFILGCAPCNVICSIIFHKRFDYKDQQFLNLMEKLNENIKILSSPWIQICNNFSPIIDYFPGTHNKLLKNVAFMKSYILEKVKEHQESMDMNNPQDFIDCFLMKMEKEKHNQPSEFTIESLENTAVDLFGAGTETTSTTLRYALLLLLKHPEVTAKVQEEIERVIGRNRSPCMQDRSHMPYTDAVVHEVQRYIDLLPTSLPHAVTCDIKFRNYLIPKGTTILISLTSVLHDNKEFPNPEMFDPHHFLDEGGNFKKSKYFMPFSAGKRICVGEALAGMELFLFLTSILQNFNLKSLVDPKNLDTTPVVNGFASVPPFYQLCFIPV

## N#Cc1ccc(COc2ccc(C#Cc3ccc(C(F)(F)C(O)(Cn4cnnn4)c4ccc(F)cc4F)nc3)cc2)cc1 (single isomer, unassigned; (+))
Cytochrome P450 3A4
  IC50: > 200 µM
Cytochrome P450 2C9
  IC50: > 200 µM
[1]
  IC50: > 100 µM
[2]
  IC50: > 100 µM
[3]
  IC50: 38 µM
Aromatase
  IC50: > 100 µM
[4]
  Tmax: 4 h
[5]
  Cmax: 2500 ng/mL
[6]
  AUC(0-t): 67000 ng·h/mL
Kidney [7]
  Drug uptake: 270%
Kidney [8]
  Drug uptake: 268%
Brain
  Drug uptake: 58%
[9]
  half-life: 16 to 19 h
[10]
  half-life: 16 to 19 h
[11]
  IC50: 138 µM
